Legend:
Erk1/2 [1] = experiment: Western blot of activated Erk1/2 (p-Erk1/2) in S1 cells; assay type: cell-based, human; conditions: 72 h
Text: Proteins were transferred to Immobilon-P or nitrocellulose membranes.
ErbB2 overexpression is associated with the activation of downstream pathways involved in the propagation of proliferative signals such as Erk1/2 MAP kinases (Janes et al., Oncogene, 9:3601(1994)). […].

TGFα = experiment: Clinical tumor biopsies, TGFα by IHC; conditions: patient 425, inflammatory breast cancer, 1200 mg/d ditosylate salt, day 21 (day 0: 32)
Text: Erk1/2 (1:1200), erbB3 (1:10), heregulin (1:25), and TGFα (1:20) were also immunostained using the BenchMark™ with I-VIEW detection chemistry.
All subjects provided written informed consent.
“TGFα” refers to Transforming Growth Factor alpha as measured by immunohistochemistry and reported in OD;

pAKT = experiment: Confocal microscopy of AU-565 cells exposed to epigen; assay type: cell-based, human; conditions: epigen and GW572016, confocal microscopy, results not shown
Text: In response to NDF (Neu Differentiating Factor or Heregulin), these cells divide and multiply. AU565 cells were stained with antibodies to show total ERK, or stained with antibodies to show phosphorylated ERK (p-Erk).

Erk1/2 [2] = experiment: Tumor xenografts, phospho-Erk1/2 and total Erk1/2 by quantitative IHC; assay type: in vivo, mice; conditions: data not shown
Text: DAB (Dako) was used as the chromogen.
Inhibition of erbB2/EGFR p-tyr in turn led to the inhibition of downstream activated, phospho-Erk1/2.

Erk1/2 [3] = experiment: Western blot of p-Erk1/2 in BT474 cells; assay type: cell-based, human; conditions: for p-Erk1/2: BT474, exponentially growing, 72 h
Method: The erbB2 overexpressing human breast adenocarcinoma cell line, BT474, was obtained from the American Type Culture Collection (Rockville, M, USA). […] The EGFR overexpressing LICR-LON-HN5 head and neck carcinoma cell line, HN5, was kindly provided by Helmout Modjtahedi at the Institute of Cancer Research, Surrey, U.K.
For IP Western blots, equivalent amounts of protein were precleared with Protein G Plus/Protein A agarose overnight at 4° C. Precleared lysates were then incubated overnight at 4° C. with specific antibodies. Immune complexes were precipitated with Protein G Plus/Protein A agarose beads, washed in RIPA buffer and then boiled in sample loading buffer. Steady state levels of total Erk1/2 and activated Erk1/2 (p-Erk) as well as total AKT protein and activated AKT (p-AKT) protein were assessed by Western blot. […] Proteins were transferred to Immobilon-P or nitrocellulose membranes. Efficiency and equal loading of proteins was evaluated by Ponceau S staining. Membranes were blocked for 1 hr in TBS (25 mM Tris-HCl, pH 7.4, 150 mM NaCl, 2.7 mM KCl) containing 4% (w/v) lowfat milk or 3% BSA (w/v). Membranes were then probed with specific antibodies recognizing target proteins. Proteins were visualized with the SUPERSIGNAL® West Femto Maximum sensitivity substrate kit (Pierce).
BT474 is an erbB2 overexpressing breast carcinoma line that also expresses EGFR, albeit at lower levels. BT474 cells constitutively express activated erbB2 (p-Tyr/erbB2). […] Cell lysates were prepared and total Erk1/2 and activated Erk1/2 (p-Erk1/2) were assessed by Western blot.

CS(=O)(=O)CCNCc1ccc(-c2ccc3ncnc(Nc4ccc(OCc5cccc(F)c5)c(Cl)c4)c3c2)o1 [GW572016, N-{3-Chloro-4-[(3-fluorobenzyl)oxy]phenyl}-6-[5-({[2-(methylsulfonyl)ethyl]amino}methyl)-2-furyl]-4-quinazolinamine]
total steady state Erk protein (Erk1/2 [1]; 0.5-5 μM): remained unchanged | inhibition at 0.5 µM (Erk1/2 [1]; Homo sapiens, 500 nM, vs vehicle, read-out: inhibition of activated, phosphorylated Erk1/2 (p-Erk)): > 50% | inhibition at 2.5 µM (Erk1/2 [1]; Homo sapiens, 2.5 μM, vs vehicle, read-out: inhibition of activated, phosphorylated Erk1/2 (p-Erk)): > 50% | inhibition at 5 µM (Erk1/2 [1]; Homo sapiens, 5 μM, vs vehicle, read-out: inhibition of activated, phosphorylated Erk1/2 (p-Erk)): 100% | TGFa (TGFα): 22 OD | p-erk in the nuclei vs cells treated with epigen alone (pAKT): comparatively less | p-Erk1/2 levels (Erk1/2 [2]): reduced | total Erk1/2 protein (Erk1/2 [2]): unaffected | EGF stimulation of p-Erk1/2 (Erk1/2 [3]; BT474, 1 μM, 24 h serum-free, EGF 50 ng/ml): inhibited | total Erk1/2 steady state protein levels (Erk1/2 [3]; BT474, 72 h, GW572016 0.5 or 1 μM, Herceptin 10 μg/ml): Neither Herceptin™ nor GW572016 reduced | p-Erk1/2 (Erk1/2 [3]; 500 nM): inhibited | p-Erk1/2 (Erk1/2 [3]; 1 μM): inhibited
